What was measured:
Assay type in all cases: functional, cell-based
HeLa = assay: Cytotoxicity against human HeLa cells after 48 hrs by MTT assay
Raji = assay: Cytotoxicity against human Raji cells after 48 hrs by MTT assay
A549 = assay: Cytotoxicity against human A549 cells after 48 hrs by MTT assay; details: A549, 48 h
SGC-7901 = assay: Cytotoxicity against human SGC7901 cells after 48 hrs by MTT assay; details: SGC-7901, 48 h

Row | Compound | IC50 (HeLa) [µM] | IC50 (Raji) [µM] | IC50 (A549) [µM] | IC50 (SGC-7901) [µM]
1 | CCOC(=O)[C@]1(C)CCC[C@@]2(C)[C@@H]3CC[C@@]4(C)C[C@]3(CC[C@@H]21)[C@@H]1CON(C(=S)Nc2ccccc2)[C@@H]14 | > 50 | 32.5 | > 50 | 27.6
2 | CCOC(=O)[C@]1(C)CCC[C@@]2(C)[C@@H]3CC[C@@]4(C)C[C@]3(CC[C@@H]21)[C@@H]1CON(C(=S)Nc2ccccc2F)[C@@H]14 | > 50 | 32.7 | > 50 | 28.2
3 | CCOC(=O)[C@]1(C)CCC[C@@]2(C)[C@@H]3CC[C@@]4(C)C[C@]3(CC[C@@H]21)[C@@H]1CON(C(=S)Nc2cccc(F)c2)[C@@H]14 | > 50 | 36.4 | > 50 | > 50
4 | C[C@@]12CC[C@@H]3[C@@](CC[C@H]4[C@@]3(C)CCC[C@@]4(C)C(=O)O)(CC1=O)C2 [ISOSTEVIOL] | > 50 | > 50 | > 50 | > 50
